The text below walks through data of US8669205B2, “Composition and method for controlling plant diseases” (Sumitomo Chemical Company, Limited, priority 2009, dated 2014).

Experiment [1] relates to Rhizoctonia damping-off pathogen (Rhizoctonial solani). Briefly: Test Example 1: cucumber seed treatment, Rhizoctonia damping-off control. The experiment is classed as in vivo. The following applies: cucumber (Sagamihanjiro) seed treatment, 9 days. On the procedure:
A DMSO solution of the compound I and a DMSO solution of tolclofos-methyl were respectively prepared. These solutions were mixed to prepare a DMSO solution containing predetermined concentrations of the compound I and tolclofos-methyl. Ten (10) μL of the DMSO solution and 1 g of cucumber (Sagamihanjiro) seeds were mixed by shaking in a 15-ml conical tube and then allowed to stand overnight to prepare treated seeds. A plastic pot was filled with sandy soil and the treated seeds were sown on it and then covered with sandy soil which had been mixed with a bran culture of Rhizoctonia damping-off pathogen (Rhizoctonial solani). The sown seeds were watered and then cultured in a greenhouse at 20 to 24° C. for 9 days. The occurrence of Rhizoctonia damping-off diseases was checked and the incidence of disease was calculated by Equation 1.
For comparison, a DMSO solution containing a predetermined concentration of tolclofos-methyl was prepared and subjected to the same test and then the incidence of disease was determined.
(§1) In order to calculate a control value, the same test was conducted in which the plants had been treated with none of the test compounds and the incidence of disease was determined.
(§2) The control value was calculated by the Equation 2 based on the incidence of disease thus determined. […]

The test system is the same in experiment [2]. Briefly: Test Example 2: spray to the foot of rice, Rhizoctonia damping-off control. Format: in vivo. The following applies: rice (Nipponbare), tolclofos-methyl 50 alone, 5 days. On the procedure:
A plastic pot was filled with sandy soil and seeds of rice (Nipponbare) were sown on it, followed by cultivation in a greenhouse for 5 weeks. A wettable powder of the compound I was prepared by mixing 10 parts of the compound I, 35 parts of a mixture of white carbon and a polyoxyethylene alkyl ether sulfate ammonium salt (weight ratio of 1:1) and 55 parts of water, followed by grinding the mixture. A wettable powder of tolclofos-methyl was prepared by mixing 10 parts of […], 35 parts of a mixture of white carbon and a polyoxyethylene alkyl ether sulfate ammonium salt (weight ratio of 1:1) and 55 parts of water, followed by grinding the mixture. Each of the wettable powder thus prepared was diluted with water, respectively, followed by mixing together to prepare a mixed solution containing predetermined concentrations of the compound I and tolclofos-methyl. The mixed solution was sprayed to the foot of the rice. […] The occurrence of Rhizoctonia damping-off diseases was checked and the incidence of disease was calculated by Equation 3. […]
as §1, §2

In the case of `COP(=S)(OC)Oc1c(Cl)cc(C)cc1Cl` [Tolclofos-methyl], the results for the Control value in experiment [1] (tolclofos-methyl 10 g/100 kg seeds alone), in experiment [1] (tolclofos-methyl 40 g/100 kg seeds alone) and in experiment [2] were 38, 75 and 58, respectively.
